Experiments:
selected APEC strains = assay: Sensitivity of all selected APEC strains to drugs (disk diffusion) and to BAFACOL, summary; type: cell-based, Escherichia coli; conditions: all 12 selected strains
Procedure: BAFACOL preparation with the total titer of 1×10^8 PFU/ml was used in the tests.
(§1) The drug sensitivity of APEC strains was tested with a disk diffusion method, according to CLSI recommendations (Clinical Laboratory Standards Institute; 2008 document: Performance standards for antimicrobial disk and dilution susceptibility tests for bacteria isolated from animals; approved standard, 3rd Ed. CLSI document M31-A3. Clinical and Laboratory Standards Institute, Wayne, PA.). The disk diffusion method used disks soaked with 10 selected drugs (Table 9).
The other tested APEC strains were resistant to 6-8 test antimicrobial drugs.

E. coli strain 130PP2017 = assay: Sensitivity of APEC strain to drugs (disk diffusion) and to BAFACOL; type: cell-based, Escherichia coli; conditions: CLSI, disk content as in column head
Procedure: as §1, with “[…]-A3.” for “M31-A3.”

APEC strains = conditions: nearly 150 APEC strains, in vitro [Oliviera A. et al., 2009]; cited from earlier work

## CCn1cc(C(=O)O)c(=O)c2ccc(C)nc21 [Nalidixic acid]
Selected APEC strains
  Drug sensitivity of all selected APEC strains: resistant

## [H]/N=C(/N)N[C@H]1[C@H](O)[C@@H](O)[C@H](O[C@@H]2O[C@@H](C)[C@](O)(C=O)[C@H]2O[C@@H]2O[C@@H](CO)[C@H](O)[C@@H](O)[C@@H]2NC)[C@@H](N/C(N)=N\[H])[C@@H]1O [Streptomycin]
Selected APEC strains
  Drug sensitivity of all selected APEC strains: resistant

## CN[C@@H]1[C@@H](O[C@H]2O[C@H](CO)[C@@H](N)[C@H](O)[C@H]2O)OC2C[C@@H](N)[C@@H](O[C@H]3[C@H](O)[C@@H](O)[C@H](N)C[C@@H]3N)OC2[C@@H]1O (some centres unmarked) [Apramycin]
E. coli strain 130PP2017
  Sensitivity to drug (R/I/S): sensitive

## CCN1CCN(c2cc3c(cc2F)c(=O)c(C(=O)O)cn3C2CC2)CC1 [enrofloxacin]
APEC strains
  Share of studied APEC strains that were sensitive: more than 50%

## CC1(C)S[C@@H]2[C@H](NC(=O)[C@H](N)c3ccccc3)C(=O)N2[C@H]1C(=O)O [Ampicillin]
Selected APEC strains
  Drug sensitivity of all selected APEC strains: resistant

Source: patent US20240050498A1, “SYNERGISTIC COMPOSITION OF PHAGES AND ITS FORMATION METHOD” (Proteon Pharmaceuticals S.A., priority 2020, published 2024)
